Assay [1] deals with T1, HMG-CoA reductase enzyme (HMGCR) (Homo sapiens, UniProt P04035).
T1 construct: endogenous protein of HEK293T cells, trapped in GAG-eDHFR virus-like particles, identified by LC-MS/MS
T1 sequence (P04035 1-888): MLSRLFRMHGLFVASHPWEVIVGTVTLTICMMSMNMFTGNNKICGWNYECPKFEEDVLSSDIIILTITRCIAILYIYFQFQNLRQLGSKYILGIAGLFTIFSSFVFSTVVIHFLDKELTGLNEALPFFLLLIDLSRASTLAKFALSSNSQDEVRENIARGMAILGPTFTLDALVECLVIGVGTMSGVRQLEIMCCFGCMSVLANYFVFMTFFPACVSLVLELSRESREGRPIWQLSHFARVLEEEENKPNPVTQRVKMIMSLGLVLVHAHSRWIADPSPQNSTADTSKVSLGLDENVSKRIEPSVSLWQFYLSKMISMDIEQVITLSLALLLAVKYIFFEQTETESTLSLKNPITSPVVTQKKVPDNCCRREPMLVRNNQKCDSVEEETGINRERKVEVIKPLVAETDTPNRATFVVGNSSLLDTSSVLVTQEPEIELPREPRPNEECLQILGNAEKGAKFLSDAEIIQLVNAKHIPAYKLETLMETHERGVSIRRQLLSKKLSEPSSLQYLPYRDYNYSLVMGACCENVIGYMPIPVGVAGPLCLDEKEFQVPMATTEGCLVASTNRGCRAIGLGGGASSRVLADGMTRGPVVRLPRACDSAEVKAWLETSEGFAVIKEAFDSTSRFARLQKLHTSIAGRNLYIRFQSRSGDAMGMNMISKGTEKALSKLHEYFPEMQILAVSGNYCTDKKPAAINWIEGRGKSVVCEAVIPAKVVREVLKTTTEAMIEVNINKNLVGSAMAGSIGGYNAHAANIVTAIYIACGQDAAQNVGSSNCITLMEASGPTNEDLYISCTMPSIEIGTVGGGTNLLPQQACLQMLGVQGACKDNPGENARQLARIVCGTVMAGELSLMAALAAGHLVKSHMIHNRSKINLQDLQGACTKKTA
As to the kind of experiment: Virotrap: trapping in GAG-eDHFR virus-like particles, LC-MS/MS. Format: cell-based. Particulars: MTX-PEG-simvastatin conjugate, not free simvastatin; 1 uM on HEK293T producer cells; DMSO and unrelated-bait controls.

The target of a further assay is MAL TIR (Homo sapiens) (UniProt P58753). The settings on record: cited from earlier work.
Sequence of MAL TIR (Homo sapiens) (P58753 81-216): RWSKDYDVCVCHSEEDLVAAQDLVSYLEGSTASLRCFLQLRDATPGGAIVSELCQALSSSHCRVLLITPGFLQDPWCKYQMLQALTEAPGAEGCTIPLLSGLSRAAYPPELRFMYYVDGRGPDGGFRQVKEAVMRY

In the case of `C[C@H]1C=C2C=C[C@H](C)[C@H](CC[C@@H]3C[C@@H](O)CC(=O)O3)[C@H]2[C@@H](OC(=O)C(C)(C)Cc2cn(CCOCCOCCOCCOCCOCCNC(=O)CC[C@H](NC(=O)c3ccc(N(C)Cc4cnc5nc(N)nc(N)c5n4)cc3)C(=O)O)nn2)C1` [MTX-linked simvastatin], the “Protein trapped in virus-like particles (LC-MS/MS)” value in assay [1] is on record as “consistent enrichment of the known targets for simvastatin (HMG-CoA reductase enzyme (HMGCR))”. Broadly, the Kd is a measure of binding affinity in units of concentration. For MYD88 TIR (from UniProt Q99836), in the assay with MAL TIR (Homo sapiens), the equilibrium dissociation constant (Kd) was 8 µM.

Source of the values: article PMC4853472, “Trapping mammalian protein complexes in viral particles” (Nature Communications, 2016).
